Measurements: patent US11389456B2, “Compounds and methods for treating oxalate-related diseases” (OxaluRx, Inc., priority 2018, dated 2022)
In brackets after ≈: the same amount, converted by molar mass.

How the values were obtained:
[1] = Metabolic stability in human liver microsomal preparation; format: in vitro ADME; conditions: pH 7.4, human liver microsomes, NADPH, 37° C.; for half-life at 1 μM: 0-45 min, read-out: Metabolic Stability t1/2
Protocol: For evaluating the metabolic stability in human liver microsomal preparation, three buffers were prepared. Buffer A had 1.0 L of 0.1 M monobasic potassium phosphate buffer containing 1.0 mM EDTA. Buffer B had 1.0 L of 0.1 M dibasic potassium phosphate buffer containing 1.0 mM EDTA. Buffer C had 0.1 M potassium phosphate buffer, 1.0 mM EDTA, adjusted to a pH 7.4 via titrating 700 mL buffer B with buffer A. Reference compound (ketanserin) and test compounds spiking solutions (500 μM) were prepared by adding 10 μL of 10 mM DMSO stock compound solution into 190 μL acetonitrile. A volume of 1.5 μL 500 μM spiking solution and 18.75 μL 20 mg/mL human liver microsomes were added into 479.75 μL of Buffer C on ice. A stock solution of 6 mM NADPH was prepared by dissolving NADPH into Buffer C.
Wells on an assay plate were iced and filled with 30 μL 1.5-μM spiking solution containing 0.75 mg/mL microsomes solution and designated for different timepoints (0-, 5-, 15-, 30-, 45-min). For the 0-min timepoint, 135 μL acetonitrile containing internal standard were added followed by 15 μL of NADPH stock solution (6 mM). All other plates were preincubated at 37° C. for 5 minutes and 15 μL NADPH stock solution (6 mM) were added to the plates to start the reaction. At 5-min, 15-min, 30-min, and 45-min, 135 μL acetonitrile containing internal standard were added to the wells of corresponding plates, respectively, to stop the reaction. After quenching, the plates were shaken on the vibrator (IKA, MTS 2/4) for 10 min at 600 rpm and then centrifuged at 5594×g for 15 minutes (Thermo Multifuge×3R). Fifty μL supernatant from each well were transported into a 96-well sample plate containing 50 μL of ultra-pure water (Millipore, ZMQS50F01) for LC/MS analysis.

[2] = Solubility in phosphate buffered saline (PBS), pH 7.4; format: physicochemical; conditions: phosphate buffer (PBS), aqueous buffer, kinetic from dmso stock; phosphate buffered saline pH 7.4, 1% DMSO, 1 hour shaking at room temperature
Protocol: (§1) For testing compound solubility in phosphate buffered saline (PBS), compound stock solutions were prepared at 10 mM in 100% DMSO. For testing in aqueous solution, the phosphate buffer was replaced with deionized, distilled water. Eleven grams Na2HPO4 (FW: 141.96 g/mol) and 3.5 g NaH2PO4.2H2O (FW: 156.03 g/mol) was added to 1 L Milli-Q water and adjusted to a pH to 7.4 with phosphoric acid or sodium hydroxide. For incubation, media were preheated to 37° C. Eight μL aliquots of reference and test compound stock solutions (10 mM) were added into 792 μL of 100 mM phosphate buffer (pH 7.4). The final DMSO concentration was 1%. Sample tubes were shaken for 1 hour at 1000 rpm at room temperature.
(§2) The calibration curve was prepared with 300-μM spiking solution (SS) in MeOH:acetonitrile (4:1). Six μL of 10 mM compound was added in 194 μL MeOH/acetonitrile (4:1). Samples were centrifuged for 10 minutes at 12,000 rpm to precipitate undissolved particles. Supernatants were transferred to a new tube or plate and dilute 10-fold and 100-fold with 100 mM buffer. Samples were prepared for LC-MS/MS analysis by adding 5 μL each sample (undiluted, 10-fold diluted, and 100-fold diluted) and 5 μL of standard curve samples to 95 μL of acetonitrile (containing internal standard).

[3] = Protein binding (plasma equilibrium dialysis); format: in vitro ADME; conditions: 5 hours at 37° C.; for fraction unbound at 5 h, 1 μM: read-out: Protein Binding Fraction Bound (converted)
Protocol: For testing protein binding of stock compounds solubilized in DMSO, spiking solutions of test and reference compounds were prepared. Solution A (0.5 mM) was prepared by adding 10 μL of 10 mM stock solution into 190 μL of DMSO. Solution B (0.02 mM) was prepared by adding 8 μL of Solution A into 192 μL of 0.05 M sodium phosphate buffer. The final DMSO concentration in Solution B was 4%.
To prepare test and reference compounds in plasma, a 96-well plate with 380 μL aliquots of plasma in the wells designed for plasma and buffer, respectively. Twenty μL of Solution B (0.02 mM of test and reference compounds) were spiked into the pre-loaded plasma in the 96-well plate. The final test concentration is 1 μM containing 0.2% DMSO.
For dialysis sample loading a plasma again buffer system was prepared by applying aliquots of 100 μL of blank dialysis buffer to the receiver side of dialysis chambers and then applying aliquots of 100 μL of the plasma spiked with test and reference compounds to the donor side of the dialysis chamber. A 25-μL aliquot of the plasma spiked with test and reference compounds was added into a 96-well sample preparation plate as T″0″ plasma samples. Aliquots were mixed with the same volume of blank buffer (50:50, volume:volume). Samples were quenched with 200 μL of acetonitrile containing internal standard. The dialysis block was covered and a shaken at 60 rpm for 5 hours at 37° C.
After a 5-hour incubation, dialyzed samples were prepared from 25-μL aliquots from both the donor and receiver sides of the dialysis apparatus into new sample preparation plates. The aliquots were mixed with same volume of opposite matrixes. The samples were quenched with 200 μL acetonitrile containing internal standard. All 0-hour and 5-hour samples were vortexed at 600 rpm for 10 min followed by centrifugation at 5594×g for 15 minutes (Thermo Multifuge×3R). Fifty μL of the supernatants were transferred to anew 96-well plate and mixed with 50 μL Milli-Q water. The sample plate was covered and frozen at −20° C. until LC/MS/MS analysis.

[4] = target: recombinant full-length human hydroxyacid oxidase 1 (HAO1), the equivalent of hGOX (Homo sapiens (Human), UniProt Q9UJM8); test: In-vitro human glycolate oxidase (hGOX) assay (Amplex red/HRP fluorescence); format: biochemical
recombinant full-length human hydroxyacid oxidase 1 (HAO1), the equivalent of hGOX, sequence (Q9UJM8 whole entry): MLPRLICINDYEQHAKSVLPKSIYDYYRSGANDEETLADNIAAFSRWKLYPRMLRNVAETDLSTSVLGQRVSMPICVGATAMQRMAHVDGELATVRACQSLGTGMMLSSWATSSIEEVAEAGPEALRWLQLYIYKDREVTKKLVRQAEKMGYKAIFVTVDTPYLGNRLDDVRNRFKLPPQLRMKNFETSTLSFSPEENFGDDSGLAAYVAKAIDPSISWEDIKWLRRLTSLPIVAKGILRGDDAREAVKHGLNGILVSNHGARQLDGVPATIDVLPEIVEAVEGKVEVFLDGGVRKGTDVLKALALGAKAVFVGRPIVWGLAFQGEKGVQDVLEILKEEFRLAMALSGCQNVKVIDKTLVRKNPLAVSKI
Protocol: Biological Activity Assay: In-Vitro Human Glycolate Oxidase (hGOX) Assay
The in-vitro glycolate oxidase assay was performed using recombinant full-length human hydroxyacid oxidase 1 (HAO1), the equivalent of hGOX. […] Purified HAO1 was dissolved in assay buffer consisting of 10 mM NaCl, 110 mM KCl, 2 mM MgCl2, 50 mM HEPES (pH 7.4) and 0.01% Triton™ X-100.

[5] = Stability in human plasma; format: in vitro ADME; conditions: read-out: Plasma Stability T1/2
Protocol: Stability in Human Plasma.
Stock compounds were prepared for testing the stability in human plasma. First, 0.05 M sodium phosphate and 0.07 M NaCl buffer, pH 7.4, were pre-heated. In deionized water, 14.505 g/L Na2HPO 12H2O, 1.483 g/L NaH2PO4.2H2O and 4.095 g/L NaCl were dissolved. The basic solution was titrated with the phosphoric acid to pH 7.40. Frozen plasma was quickly thawed at 37° C. The plasma was centrifuged at 3,000 rpm for 8 minutes to remove clots, then pipetted and pooled as the plasma stock for the experiment. Only plasma within the range of pH 7.4 to pH 8 was used. If higher than pH 8, the plasma was discarded. The initial pH of the plasma was not adjusted to pH 7.4 with acid or by bubbling with carbon dioxide. By using a 5% carbon dioxide incubator and PBS buffer, a pH of 7.4 will be reached after the 4-hour equilibrium dialysis time. Plasma was iced until use.
Spiking solution A with 0.5 mM testing compounds was prepared by adding 10 μL of 10 mM test compounds stock solution to 190 μL DMSO. Spiking solution B with 0.02 mM testing compound was prepared by adding 40 μL of spiking solution A to 960 μL of […] sodium phosphate buffer with 0.5% BSA. The plasma and spiking solution B were prewarmed at 37° C. for 5 minutes. Ten μL of pre-warmed spiking solution B was added into the wells designated for all the time points (5, 15, 30, 45, 60 minutes). For the 0-minute timepoint, 400 μL acetonitrile containing internal standard were added to the wells of 0-minute plate and then 90 μL plasma were added. For the other timepoints, 90 μL of pre-warmed plasma were added into the wells (0, 5, 15, 30, 45, 60 minutes) and the timing was started. At 5, 15, 30, 45, 60 minutes, 400 μL acetonitrile containing internal standard were added to the wells of corresponding plates, respectively, to stop the reaction. After quenching, the plates were shaken on a vibrator (IKA, MTS 2/4) for 10 minutes at 600 rpm and then centrifuged at 5594×g for 15 minutes (Thermo Multifuge×3R). Fifty μL of supernatant was transferred from each well into a 96-well sample plate containing 50 μL ultra-pure water (Millipore, ZMQS50F01) for LC/MS analysis.

[6] = Solubility in aqueous solution (deionized, distilled water); format: physicochemical; conditions: kinetic from dmso stock, 1% DMSO, read-out: Aqueous Solubility H2O
Protocol: as §1, §2

| SMILES | CLint scaled at 1 μM [1] | half-life at 1 μM [1] | solubility at 1 h [2] | recovery at 5 h, 1 μM [3] | fraction unbound at 5 h, 1 μM [3] | IC50 [4] | half-life at 2 μM [5] | solubility at 1 h [6] |
| --- | --- | --- | --- | --- | --- | --- | --- | --- |
| CC(C)=Cc1cccc(Oc2[nH]nnc2C(=O)O)c1 [Example I-286, 5-(3-(2-Methylprop-1-en-1-yl)phenoxy)-1H-1,2,3-triazole-4-carboxylic acid] | 15.1 mL/min/kg | 1.92 h | 92.6 µM (≈ 24 µg/mL) | 103% | 0.002 | 14 nM | 3.45 h | 95.8 µM (≈ 24.8 µg/mL) |
| O=C(O)c1nn[nH]c1Oc1cccc(S(F)(F)(F)(F)F)c1 [Example I-269, 5-(3-Pentafluorosulfanylphenoxy)-1H-1,2,3-triazole-4-carboxylic acid] | < 0.15 mL/min/kg | > 83.3 h | 109 µM (≈ 36 µg/mL) | 91.8% | 0.01 | 105 nM | 2.19 h | 103 µM (≈ 34.2 µg/mL) |
| CCC(CC)c1ccc(Oc2[nH]nnc2C(=O)O)cc1 [Example I-272, 5-(4-(Pentan-3-yl)phenoxy)-1H-1,2,3-triazole-4-carboxylic acid] | 65.3 mL/min/kg | 0.443 h | 103 µM (≈ 28.3 µg/mL) | 101% | – | 84 nM | 4.61 h | 96.6 µM (≈ 26.6 µg/mL) |
| COc1cc(-c2ccc(Oc3[nH]nnc3C(=O)O)cc2)ccc1F [Example I-271, 5-((4′-Fluoro-3′-methoxy-[1,1′-biphenyl]-4-yl)oxy)-1H-1,2,3-triazole-4-carboxylic acid] | 3.49 mL/min/kg | 8.31 h | 110 µM (≈ 36.2 µg/mL) | 110% | 0.01 | 7 nM | 2.82 h | 90.1 µM (≈ 29.7 µg/mL) |
| O=C(O)c1nn[nH]c1Oc1ccc(-c2ccc3c(c2)OCO3)cc1 [Example I-304, 5-(4-(Benzo[d][1,3]dioxol-5-yl)phenoxy)-1H-1,2,3-triazole-4-carboxylic acid] | 5.47 mL/min/kg | 5.3 h | 111 µM (≈ 36.2 µg/mL) | 105% | 0.007 | 4 nM | 6.68 h | 115 µM (≈ 37.4 µg/mL) |
| C=Cc1ccc(Oc2[nH]nnc2C(=O)O)cc1 [Example I-285, 5-(4-Vinylphenoxy)-1H-1,2,3-triazole-4-carboxylic acid] | < 0.15 mL/min/kg | > 83.3 h | 101 µM (≈ 23.4 µg/mL) | 98.8% | 0.012 | 38 nM | 8.02 h | 97.6 µM (≈ 22.6 µg/mL) |
| CCCC(C)c1cccc(Oc2[nH]nnc2C(=O)O)c1 (centres unmarked) [Example I-277] | 8.56 mL/min/kg | 3.38 h | 113 µM (≈ 31.1 µg/mL) | 108% | 0.003 | 65 nM | 2.71 h | 97.2 µM (≈ 26.8 µg/mL) |
| O=C(O)c1nn[nH]c1Sc1ccc2ccccc2c1 [Example I-031, 5-(Naphthalen-2-ylthio)-1H-1,2,3-triazole-4-carboxylic acid] | 2.21 mL/min/kg | 13.1 h | 121 µM (≈ 32.8 µg/mL) | 117% | – | 69 nM | 1.25 h | 110 µM (≈ 29.8 µg/mL) |
| O=C(O)c1nn[nH]c1Oc1cccc(-c2ccc3ccccc3c2)c1 [Example I-178, 5-(3-(Naphthalen-2-yl)phenoxy)-1H-1,2,3-triazole-4-carboxylic acid] | 7.08 mL/min/kg | 4.09 h | 97.9 µM (≈ 32.4 µg/mL) | 109% | – | 13000 nM | 0.985 h | 83.4 µM (≈ 27.6 µg/mL) |
| COc1ccc(-c2ccc(Oc3[nH]nnc3C(=O)O)cc2)cc1 [Example I-153, 5-((4′-Methoxy-[1,1′-biphenyl]-4-yl)oxy)-1H-1,2,3-triazole-4-carboxylic acid] | – | – | – | 116% | 0.103 | 10 nM | 3.11 h | – |
| O=C(O)c1nn[nH]c1Oc1ccc(S(F)(F)(F)(F)F)cc1 [Example I-049, 5-(4-Pentafluorosulfanylphenoxy)-1H-1,2,3-triazole-4-carboxylic acid] | – | – | – | 107% | 0.006 | 50 nM | 3.65 h | – |
| Cc1ccc(-c2ccc(Oc3[nH]nnc3C(=O)O)cc2)cc1 [Example I-151, 5-((4′-Methyl-[1,1′-biphenyl]-4-yl)oxy)-1H-1,2,3-triazole-4-carboxylic acid] | < 0.15 mL/min/kg | > 83.3 h | 83.2 µM (≈ 24.6 µg/mL) | – | – | 11 nM | 0.669 h | 53 µM (≈ 15.6 µg/mL) |
